Experiment [1] addresses T1, GOT1 (glutamate oxaloacetate transaminase 1, aspartate aminotransferase 1) (Homo sapiens, UniProt P17174). The experiment in a line: GLOX/HRP-coupled enzyme kinetics. Type of experiment: biochemical.
The target in experiment [2] is T1, GOT1 (glutamate oxaloacetate transaminase 1, aspartate aminotransferase 1). The experiment in a line: GLOX/HRP-coupled GOT1 enzyme assay. Type of experiment: biochemical.
Experiment [3] has the same target. Description: X-ray crystal structure, […] Å. Format: binding.

pIC50: −log10 of the molar value.

T1 sequence (P17174 2-413): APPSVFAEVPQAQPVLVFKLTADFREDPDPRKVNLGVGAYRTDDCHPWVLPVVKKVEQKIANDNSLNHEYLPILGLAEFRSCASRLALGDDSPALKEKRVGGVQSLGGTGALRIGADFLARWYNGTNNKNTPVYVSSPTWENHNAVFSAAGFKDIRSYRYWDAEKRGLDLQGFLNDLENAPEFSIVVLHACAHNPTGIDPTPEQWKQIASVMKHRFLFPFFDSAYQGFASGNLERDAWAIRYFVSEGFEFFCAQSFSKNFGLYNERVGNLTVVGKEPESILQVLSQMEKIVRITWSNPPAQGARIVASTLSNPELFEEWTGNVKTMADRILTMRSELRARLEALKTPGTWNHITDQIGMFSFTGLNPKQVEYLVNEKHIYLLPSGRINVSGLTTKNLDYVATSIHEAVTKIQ

Take `O=C(O)CCC(=O)C(=O)O` [α-ketoglutarate]: the Km in experiment [1] is reported as ~ 0.5 mM.

The term pIC50 denotes the IC50 on a negative log10 scale, so that one unit is a factor of ten. The low end stands for a large IC50, the high end for a small IC50. `O=C(Nc1ccccc1)N1CCN(c2cccc3[nH]ccc23)CC1` [iGOT1-01] had a pIC50 in experiment [2] of 4.95.

As for `Cc1ncc(COP(=O)(O)O)c(C=O)c1O` [PLP], the “X-ray crystal structure, 2.10 Å” value in experiment [3] is given as “The WT-GOT1 structure is a homodimer, each of which contains PLP”.

The values are drawn from PMC6487875 (Biochemistry, 2018).
